Experimental data taken from BigSolDB 2.1.

Nc1cccc2c1C(=O)N(C1CCC(=O)NC1=O)C2=O (stereo unspecified)
solubility (mole fraction)
Conditions	278.15 K	283.15 K	288.15 K	293.15 K	298.15 K	303.15 K	308.15 K	313.15 K	318.15 K
in acetone	1.43e-06	2e-06	2.59e-06	3.32e-06	4.27e-06	5.32e-06	6.53e-06	7.84e-06	9.49e-06
in ethanol	1.8e-07	2.4e-07	3.1e-07	4.1e-07	5.3e-07	6.8e-07	8.5e-07	1.04e-06	1.26e-06
in ethyl acetate	4.5e-07	6.6e-07	9.3e-07	1.21e-06	1.55e-06	1.95e-06	2.38e-06	2.96e-06	3.62e-06
in isopropanol	2.3e-07	3.4e-07	4.8e-07	6.3e-07	8.1e-07	1.02e-06	1.26e-06	1.56e-06	1.9e-06
